Key:
[1] = system: Male Swiss mice; experiment: Antagonism of xanomeline-induced diarrhea in mice by oxybutynin (fecal pellet count); type: in vivo; settings: i.p. oxybutynin 0.3 to 30 mg/kg, 30 min before xanomeline 30 mg/kg
Procedure: Male Swiss mice (4-6 weeks old), N=10 per treatment group were used. Animals were pretreated with i.p. oxybutynin (a representative peripheral muscarinic receptor antagonist) or vehicle; 30 minutes later animals were treated with xanomeline at a dose of 30 mg/kg that caused diarrhea (as determined in Experiment 1). The dose of oxybutynin ordinarily ranged from 0.3 to 30 mg/kg.
Mice were placed individually in cages without any bedding materials. During the experiment the number of fecal pellets was counted at different time-points as outlined below: • T−1 h to T0: counting of the accumulated fecal pellets excreted. • T0: administration of oxybutinin. • T30 min: administration of vehicle or xanomeline. • T 30 min to T 2.5 h: counting of accumulated fecal pellets excreted. • T+2.5 h to T+4.5 h: counting of accumulated fecal pellets excreted.
The total number of fecal pellets for each mouse was counted over time. An analysis of variance (ANOVA) was performed on the results. Fisher's Protected Least Significant Difference was used for pairwise comparisons. The p value ≤0.05 were considered significant. Grubbs' test (http//www atgraphpad.com/quickcalcs/Grubbs1.cfm) was used to detect outliers for each parameter in each experimental group.

[2] = system: Male Swiss mice; experiment: T-maze continuous alternation task (T-CAT) with oxybutynin and xanomeline; type: in vivo; settings: i.p. oxybutynin pretreatment 30 min before xanomeline
Excerpt: The T-maze continuous alternation task (T-CAT) is useful as model for studying compounds with cognitive enhancing properties. The T-maze consists of 2 choice arms and 1 start arm mounted to a square center. Manual doors are provided to close specific arms during the force choice alternation task.
Male Swiss mice (4-6 weeks old), N=10 per treatment group were used, and were pretreated with: • Oxybutynin at the dose that blocked fecal pellet excretion in Study 2 of Example 1.
Mice were randomly assigned to one of the different experimental treatment groups. Each animal was identified by its group name, cage number, series (day) of experiment, and number (1 to 10) written with permanent ink on the tail.
The T-maze apparatus is made of gray Plexiglas with a main stem (55 cm long×10 cm wide×20 cm high) and two arms (30 cm long×10 cm wide×20 cm high) positioned at 90 degree angle relative to the main stem. A start box (15 cm long×10 cm wide) is separated from the main stem by a guillotine door. […]
The percentage of alternation over the 14 free-choice trials was determined for each mouse and was used as an index of working memory performance. […]
Analysis of variance (ANOVA) was performed on the results. […] The drug-induced improvement of memory was calculated by setting the respective response of the saline/vehicle as 100% and that of the test group as 0% reversion. […]

[3] = transdermal [14C]oxybutynin, rats; cited from earlier work
[4] = clinical trials, Alzheimer disease; cited from earlier work
[5] = system: Male Swiss mice; experiment: Dose-response to xanomeline in a mouse model of diarrhea (fecal pellet count); type: in vivo; settings: xanomeline i.p. 0.3 to 30 mg/kg
Excerpt: Male Swiss mice (4-6 weeks old), N=10 per treatment group were used, and treated intra-peritoneally (i.p.) with either vehicle (vehicle group) or increasing doses of xanomeline, a representative muscarinic agonist. Mice were randomly assigned to one of two experimental groups (vehicle; or increasing doses of xanomeline). Each animal was identified by its group name, cage number, series (day) of experiment, and number (1 to 10) written with permanent ink on the tail.
Mice were placed individually in cages without any bedding materials. During the experiment the number of fecal pellets were counted at different time-points, starting one hour before the time of the administration of the test compound (T0), as outlined below: • T−1 h to T0: counting of the accumulated fecal pellets excreted. • T0: administration of the test compound, • T0 to T+2 h: counting of the accumulated fecal pellets excreted. • T+2 h to T+4 h: counting of the accumulated fecal pellets excreted.
The total number of fecal pellets for each mouse was counted over time. An analysis of variance (ANOVA) was performed on the results. Fisher's Protected Least Significant Difference was used for pairwise comparisons; p values ≤0.05 were considered significant. Grubbs' test (http://www.graphpad.com/quickcs/Grubbs1.cfm) was used to detect outliers for each parameter in each experimental group.

[6] = system: patients with Alzheimer disease; experiment: Xanomeline 6-month double-blind, placebo-controlled, parallel group trial in Alzheimer disease patients; type: in vivo, human; settings: in view of Mirza 2003; i.e. 225 mg/day
Excerpt: A close analog of tazomeline, the 3-(4-hexyloxy-1,2,5-thiadiazol-3-yl)-1-methyl-5,6-dihydro-2H-pyridine known as xanomeline and described in U.S. Pat. No. 5,043,345, the disclosure of which is incorporated herein by reference in its entirety, has been disclosed as a muscarinic acetylcholine receptor agonist with reasonable selectivity for the M1 and M4 subtypes. The efficacy of xanomeline, which stimulates muscarinic receptors in the brain and in the periphery was studied in patients with Alzheimer disease in a 6-month double-blind, placebo-controlled, parallel group trial. […] Such side effects prevented the use of doses of xanomeline that could achieve maximum anti-dementia efficacy and reflect stimulation of cholinergic receptors outside the brain.
Dose-limiting adverse events attending the use of drugs that stimulate cholinergic transmission, such as xanomeline, appear to primarily reflect the excessive stimulation of peripheral cholinergic receptors, especially those of the muscarinic type (mAChRs), such that in both healthy volunteers and Alzheimer's patients many of these side effects have been reported for xanomeline; in the patient population this led to a discontinuation rate higher than 50% while the effects on cognition were not robust and mainly seen at the highest doses tested (Mirza2003).

[7] = clinical study, Sramek 1995; cited from earlier work
[8] = system: patients with Alzheimer disease; settings: cited from earlier work
[9] = system: primate; settings: primate study, domperidone administered with BuTAC; cited from earlier work

Structure (SMILES): CCN(CC)CC#CCOC(=O)C(O)(c1ccccc1)C1CCCCC1 (stereo not drawn) [oxybutynin, 4-diethylaminobut-2-ynyl 2-cyclohexyl-2-hydroxy-2-phenylethanoate]
- antagonism of xanomeline-induced diarrhea [1]: dose-dependently antagonized the diarrhea induced by xanomeline
- ability to perform the T-maze test after oxybutynin pretreatment [2]: restored the animals' ability to perform the T-maze test
- brain penetration of radiolabel [3]: presence of radiolabel in the brain

Structure (SMILES): CO/N=C/C1=CCCN(C)C1 [milameline, (E)-N-methoxy-1-(1-methyl-1,2,5,6-tetrahydropyridin-3-yl)methanimine]
- maximum tolerated dose [4]: 2 mg four times per day

Structure (SMILES): CCCCCCOc1nsnc1C1=CCCN(C)C1 [xanomeline, 3-(4-hexyloxy-1,2,5-thiadiazol-3-yl)-1-methyl-5,6-dihydro-2H-pyridine]
- diarrhea (fecal pellets excreted) [5]: dose-dependently causes diarrhea
- maximum tolerated dose as considered in the context of the present invention [6]: 75 mg three times per day
- MTD [7]: 100 mg three times a day
- patients who discontinued treatment ([8]; 75 mg xanomeline orally three times daily, 6-month study, mainly adverse events, predominantly gastrointestinal): 59%
- cognitive and behavioral symptoms of Alzheimer disease compared to placebo ([8]; 6-month trial (Bodick 1997; Shekhar 2008)): significantly improve cognitive and behavioral symptoms
- side effects (bradycardia, gastro-intestinal distress, excessive salivation, sweating) ([8]; 6-month trial): dose-dependent unacceptable side effects
- discontinuation rate in the patient population ([8]; Alzheimer's patients (Mirza 2003)): higher than 50%

Structure (SMILES): O=c1[nH]c2ccccc2n1CCCN1CCC(n2c(=O)[nH]c3cc(Cl)ccc32)CC1 [domperidone, 5-chloro-1-(1-[3-(2-oxo-2,3-dihydro-1H-benzo[d]imidazol-1-yl)propyl]piperidin-4-yl)-1H-benzo[d]imidazol-2(3H)-one]
- effect on BuTAC-induced vomiting [9]: mitigated

— patent publication US10307409B2, “Muscarinic combinations and their use for combating hypocholinergic disorders of the central nervous system” (Chase Pharmaceuticals Corporation, priority 2015, dated 2019)
